Earlier results, collected in patent US20100055178A1, “ENTERIC-COATED CREATINE COMPOSITIONS AND METHODS OF USE THEREOF” (priority 2008, published 2010).

Legend:
[1] = 5 grams, 4-6 times a day, for two or more days, oral
[2] = acidic solutions, pH 3-6

CN(CC(=O)O)C(=N)N [creatine]
total creatine concentration [1]: significant increase
rate of conversion of creatine to creatinine [2]: almost instantaneous
